Results taken from article PMC6435784, “Gut Microbiota-Based Pharmacokinetics and the Antidepressant Mechanism of Paeoniflorin” (Frontiers in Pharmacology, 2019).

Key:
Type in all cases: in vivo, rat
depressed rats = test: Chronic unpredictable stress depression model, sucrose preference test; conditions: after 2 weeks of drug treatment, compared with model group, n = 8
Procedure: Forty rats were randomly divided into the following groups (n = 8): the normal control group, the model control group, the fluoxetine group (10 mg/kg), the paeoniflorin low-dose group (10 mg/kg), and the paeoniflorin high-dose group (20 mg/kg). Except for the blank control group, the groups were randomly exposed to two stressors, including behavioral constraints, ice water swimming, electric shock, cold stimulation, clip tail, wet bedding, light/dark reversed, shaking, foods and water deprivation, continuously for 8 weeks to establish a chronic unpredictable stress model. The sucrose preference test was performed at 0 and 14 days after administration.

[1] = Excretion of paeoniflorin in rats (urine, feces, bile); conditions: for Excretion rate of paeoniflorin (%), Urine (%), cumulative / Excretion rate of paeoniflorin (%), Feces (%), cumulative: total excretion, oral 20 mg/kg
Procedure: Then, urine samples and feces samples were collected at 0, 6, 12, 24, 48, 72, and 96 h.

[2] = Brain distribution of paeoniflorin and benzoic acid in rats; conditions: at 2 h after oral administration of paeoniflorin 20 mg/kg
[3] = Excretion of paeoniflorin in rats (urine, feces, bile); conditions: normal rats, paeoniflorin 20 mg/kg, excreted form = labelled substance, n = 6
[4] = normal rats, oral paeoniflorin 20 mg/kg, excreted form = labelled substance, n = 6

With `C[C@@]12C[C@@]3(O)O[C@@H](O1)[C@]1(COC(=O)c4ccccc4)[C@H]3C[C@@]12O[C@@H]1O[C@H](CO)[C@@H](O)[C@H](O)[C@H]1O` [Paeoniflorin] the sucrose preference value (depressed rats; 10 mg/kg) was “higher than that in the model group”, the sucrose preference value (depressed rats; 20 mg/kg) was “higher than that in the model group” and the “96-h cumulative excretion in feces” value [1, 4] was 0.016%. The “96-h cumulative excretion in urine” value [1, 4] was 1.66%, the “Excretion rate of paeoniflorin (%), Urine (%), cumulative” value (from here on “Excretion rate … Urine (%), cumulative”) ([1]; time row 0–6 h) was 0.6821 ± 0.3209% and the “Excretion rate of paeoniflorin (%), Feces (%), cumulative” value (“Excretion rate … Feces (%), cumulative” for short) ([1]; time row 6–12 h) was 0.0890 ± 0.0568%. The “Excretion rate … Urine (%), cumulative” value ([1]; time row 6–12 h) was 1.2565 ± 0.9639%, the “Excretion rate … Feces (%), cumulative” value ([1]; time row 12–24 h) was 0.1247 ± 0.0763% and the “Excretion rate … Urine (%), cumulative” value ([1]; time row 12–24 h) was 11.4988 ± 6.4969%. The “Excretion rate … Feces (%), cumulative” value ([1]; time row 24–48 h) was 0.1479 ± 0.0932%, the “Excretion rate … Urine (%), cumulative” value ([1]; time row 24–48 h) was 28.6890 ± 13.81% and the “Excretion rate … Feces (%), cumulative” value ([1]; time row 48–72 h) was 0.1630 ± 0.0948%. For the same molecule, the “Excretion rate … Urine (%), cumulative” value ([1]; time row 48–72 h) was 42.8196 ± 19.2297%, the “Excretion rate … Feces (%), cumulative” value ([1]; time row 72–96 h) was 0.1805 ± 0.1055% and the “Excretion rate … Urine (%), cumulative” value ([1]; time row 72–96 h) was 43.7953 ± 19.5441%. For the same molecule, the “detection in SD rat brains” value [2] was “not detected” and the “cumulative excretion rate in bile for 60 h” value [3] was 0.02%.
